Patent publication US11077070B2 (Wilmore Labs LLC, priority 2009, dated 2021)
Each block holds one molecule with its values, some of them ahead of it.

Key:
[1] = Pharmacokinetic study, 100 mg resveratrol, oral transmucosal resveratrol/solubilizer formulation (test) versus controls; type: in vivo, human; conditions: for Cav: plasma
Experimental: Any adverse effects are recorded. […] These adjustments are made using the formulas […])).

[2] = trans/cis isomerisation of resveratrol in water or 3 M ribose, with or without 30 minutes U.V. light (Table 3, FIGS. 1-4); type: physicochemical; conditions: for cis isomer peak area, Mass spectroscopy / cis isomer peak area, PDA (trans-316 nm, cis-284 nm) / cis isomer peak area, Tandem mass spectroscopy / trans isomer peak area, Mass spectroscopy / trans isomer peak area, PDA (trans-316 nm, cis-284 nm) / trans isomer peak area, Tandem mass spectroscopy: UV exposed 30 minutes
Description: PDA-284 nm panel: NL: 4.31E5; nm=283.5-284.5; PDA Avalon. MS Panel: NL: 3.90E6; m/z=226.60-227.60; F: -c APCI corona; sid=10.00; Full ms [100.00-1000.00] MS ICIS. Tandem MS panel: NL: 7.71E5; m/z=184.50-185.50; F: -c APCI corona; sid=10.00 Full ms2 227.00@cid45.00 [60.00-250.00] MS ICIS.

[3] = Dissolution of resveratrol in sugar or sugar alcohol solutions (observation); type: physicochemical
Experimental: A ribose/water solution (18 g/2 g) was heated.
In another experiment, various sucrose/water mixtures were heated to boiling point. Reservatrol was added to each sucrose/water solution. […] On cooling, resveratrol/sucrose/water mixtures formed crystalline solids composed of small crystals; in contrast, the sucrose/water solution formed a crystalline solid composed of large crystals.
In another experiment, water was added to the solid resveratrol/sucrose/water mixtures.
An aqueous solution of dextrose was prepared and heated to boiling. The resveratrol was added to the warm syrup and allowed to cool further. While still liquid, the syrup retained a capsinoid flavor. On cooling further, a white powdery mixture of crystals was formed. No capsinoid-like flavor was detected when the solid mixture was tasted.
Resveratrol was added to warm solutions of xylitol or erythritol. […] On cooling the xylitol or erythritol solution formed a crystalline solid that appeared to exclude the resveratrol. No capsaicirioid-like flavor was detected when each reservatrol/xylitol and reservatrol/erythritol solid mixture was tasted.
Water was added to the each reservatrol/xylitol and reservatrol/erythritol mixture.

[4] = Solubility of resveratrol in 3M ribose, U.V. HPLC and MS peak areas (Table 2); type: physicochemical
Description: Table 2 and 3 summarize the results.

[5] = Resveratrol solubility in ribose, U.V. HPLC and mass spectrometry peak areas (Table 1); type: physicochemical
Experimental: The peak areas of the LC traces using U.V. and MS spectral detection were determined. […]

[6] = 1.6 mg resveratrol in 1 ml 3M ribose
[7] = 1.6 mg resveratrol in 1 ml water
[8] = 0.4 mg/ml standard in MeOH/water
[9] = 1.3 mg resveratrol in 1 ml 1M ribose
[10] = 1.3 mg resveratrol in 1 ml water

Cav ([1]; Control(s): 100 mg resveratrol): 34 ng/mL
Cav ([1]; Test: 100 mg resveratrol, oral transmucosal resveratrol/solubilizer formulation): 23 ng/mL
Structure (SMILES): O=S(=O)(O)Oc1cc(O)cc(/C=C/c2ccc(O)cc2)c1 [3-sulfate, trans-resveratrol-3-O-sulfate]

cis isomer peak area, Mass spectroscopy ([2]; 3M ribose): 67794774
cis isomer peak area, PDA (trans-316 nm, cis-284 nm) ([2]; 3M ribose): 3348277
cis isomer peak area, Tandem mass spectroscopy ([2]; 3M ribose): 12957854
trans isomer peak area, Mass spectroscopy ([2]; 3M ribose): 30056046
trans isomer peak area, PDA (trans-316 nm, cis-284 nm) ([2]; 3M ribose): 9667985
trans isomer peak area, Tandem mass spectroscopy ([2]; 3M ribose): 4678183
isomers detected, PDA-316 nm panel ([2]; FIG. 1, 1.6 mg resveratrol in 1 ml water, no U.V. exposure): cis isomer is not detected
isomers detected, PDA-316 nm panel ([2]; FIG. 2, 1.6 mg resveratrol in 1 ml 3 M ribose, no U.V. exposure): cis isomer is not detected
cis isomer peak area, Mass spectroscopy ([2]; Water): 42202693
cis isomer peak area, PDA (trans-316 nm, cis-284 nm) ([2]; Water): 2260306
cis isomer peak area, Tandem mass spectroscopy ([2]; Water): 8357052
trans isomer peak area, Mass spectroscopy ([2]; Water): 7702267
trans isomer peak area, PDA (trans-316 nm, cis-284 nm) ([2]; Water): 3293034
trans isomer peak area, Tandem mass spectroscopy ([2]; Water): 1489337
solubility ([3]; aqueous dextrose solution, heated to boiling and cooled): not well soluble
solubility ([3]; in ribose and in fructose/dextrose): soluble
solubility in the presence of ribose ([3]; ribose/water solution (18 g/2 g), 100 mg resveratrol to 1000 mg solution, inferred from sensation in the mouth): increased
dissolution ([3]; sucrose/water solution (1:1 v/v)): failed to dissolve
dissolution ([3]; various sucrose/water mixtures heated to about 90° C., then cooled): failed to dissolve
dissolution ([3]; warm solutions of xylitol or erythritol): observed not to dissolve
behaviour on adding water ([3]; water added to reservatrol/xylitol and reservatrol/erythritol mixtures): precipitated out of solution
behaviour on adding water ([3]; water added to the solid resveratrol/sucrose/water mixtures): precipitated out of solution
peak area, Mass spectroscopy [4, 6]: 69226333
peak area, PDA (trans-316 nm, cis-284 nm) [4, 6]: 17477801
peak area, Tandem mass spectroscopy [4, 6]: 11603388
peak area, Mass spectroscopy [4, 7]: 35925663
peak area, PDA (trans-316 nm, cis-284 nm) [4, 7]: 10448839
peak area, Tandem mass spectroscopy [4, 7]: 6058729
% increase of peak area, Mass spectroscopy ([4]; 3M ribose versus water): 92.7%
% increase of peak area, PDA (trans-316 nm, cis-284 nm) ([4]; 3M ribose versus water): 67.3%
% increase of peak area, Tandem mass spectroscopy ([4]; 3M ribose versus water): 91.5%
Serum Cmax levels of resveratrol, test versus control subjects ([1]; 100 mg resveratrol): higher in test subjects
Resveratrol MS peak area [5, 8]: 361620189
Resveratrol MS/MS peak area [5, 8]: 22825783
Resveratrol UV peak area [5, 8]: 32589198
Resveratrol MS peak area [5, 9]: 34006422
Resveratrol MS/MS peak area [5, 9]: 2177343
Resveratrol UV peak area [5, 9]: 6879044
Resveratrol MS peak area [5, 10]: 17991728
Resveratrol MS/MS peak area [5, 10]: 1055482
Resveratrol UV peak area [5, 10]: 3757436
Resveratrol MS peak area ([5]; 1:1 dilution of ribose sample): 59987321
Resveratrol MS/MS peak area ([5]; 1:1 dilution of ribose sample): 4277049
Resveratrol UV peak area ([5]; 1:1 dilution of ribose sample): 10156011
Resveratrol MS peak area ([5]; 1:1 dilution of water sample): 36350491
Resveratrol MS/MS peak area ([5]; 1:1 dilution of water sample): 2235878
Resveratrol UV peak area ([5]; 1:1 dilution of water sample): 7414378
percentage increase in the peak area with ribose ([5]; ribose (undiluted) sample versus water sample): 83.1%
Structure (SMILES): Oc1ccc(/C=C/c2cc(O)cc(O)c2)cc1 [Resveratrol, 3,5,4′-trihydroxy-trans-stilbene]
isomers detected, PDA-316 nm panel ([2]; FIG. 3, 1.6 mg resveratrol in 1 ml water exposed to U.V. light for 30 minutes): trans isomer and cis isomer peaks detected
isomers detected, PDA-316 nm panel ([2]; FIG. 4, 1.6 mg resveratrol in 1 ml 3 M ribose exposed to U.V. light for 30 minutes): trans isomer and cis isomer peaks detected
peak plasma level and bioavailability, test versus controls ([1]; resveratrol/solubilizer formulation by oral transmucosal route versus oral transmucosal resveratrol/sucrose or oral resveratrol/solubilizer): greater peak plasma level and bioavailability
